Results as given in paper PMC7428016, “Influence of ligand’s directional configuration, chrysenes as model compounds, on the binding activity with aryl hydrocarbon receptor” (Scientific Reports, 2020).

How the values were obtained:
[1] = molecular target: T1, AhR (Rattus norvegicus, UniProt P41738); test: H4IIE-luc transactivation bioassay (AhR-mediated potency)
T1 sequence (P41738 10-853): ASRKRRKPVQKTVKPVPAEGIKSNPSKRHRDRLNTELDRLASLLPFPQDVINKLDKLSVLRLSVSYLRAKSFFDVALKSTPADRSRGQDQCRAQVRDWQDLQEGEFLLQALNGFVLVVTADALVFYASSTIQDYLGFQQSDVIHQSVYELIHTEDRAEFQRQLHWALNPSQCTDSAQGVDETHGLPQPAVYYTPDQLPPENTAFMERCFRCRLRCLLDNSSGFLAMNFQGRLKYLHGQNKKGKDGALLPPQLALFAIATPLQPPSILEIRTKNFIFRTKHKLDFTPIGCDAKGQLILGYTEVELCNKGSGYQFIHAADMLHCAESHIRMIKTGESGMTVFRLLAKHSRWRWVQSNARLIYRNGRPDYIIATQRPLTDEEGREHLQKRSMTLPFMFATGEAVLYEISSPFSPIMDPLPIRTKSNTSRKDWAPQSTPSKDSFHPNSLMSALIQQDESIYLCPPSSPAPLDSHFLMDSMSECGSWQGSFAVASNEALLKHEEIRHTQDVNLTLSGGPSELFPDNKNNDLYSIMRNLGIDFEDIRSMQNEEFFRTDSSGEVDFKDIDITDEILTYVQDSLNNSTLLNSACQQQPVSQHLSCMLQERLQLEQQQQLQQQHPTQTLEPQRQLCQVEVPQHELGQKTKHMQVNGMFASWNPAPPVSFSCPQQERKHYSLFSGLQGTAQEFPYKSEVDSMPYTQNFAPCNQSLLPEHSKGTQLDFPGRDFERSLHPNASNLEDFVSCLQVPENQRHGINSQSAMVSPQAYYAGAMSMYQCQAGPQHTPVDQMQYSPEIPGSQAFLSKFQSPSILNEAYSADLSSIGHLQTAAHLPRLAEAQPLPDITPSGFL
Text: H4IIE cell line derived from rat hepatoma has been reported to continuously express cytochrome P450 protein/mRNA. For this study, H4IIE cells transfected with the luciferase (Luc) reporter gene plasmid (pGudLuc1.1) were used, originally obtained from Jac Aarts, University of Wageningen, The Netherlands and further developed by John Giesy, University of Saskatchewan[44],[45]. Upon ligand binding, AhR in H4IIE-luc is activated and translocated to the nucleus, where heat shock proteins are dissociated from the complex and they form a dimer with the AhR nuclear translocator (ARNT) protein. This complex binds to specific DNA sequences with high affinity, the dioxin-responsive element (DRE). The binding to the DRE results in DNA bending transcriptional activation of adjacent responsive genes.
Acute toxic potencies of chrysene homologues were determined based on an AhR-mediated activity using H4IIE-luc cells, by the method previously reported. […] After the exposure, the activity results were expressed as relative luminescence units that were quantified using a Victor X3 multi label plate reader (PerkinElmer, Waltham, MA). Benzo[a]pyrene was used as a positive control ligand. We converted responses of the H4IIE-luc bioassay to the percentages of the maximum response (%BaPmax) observed for a 50 nM BaP (= 100%BaPmax). All bioassays were repeated four times in triplicate (Table S4 for detail information of in vitro bioassay conditions). […] Estimations of EC50 values of target compounds from the dose–response relationships were basically assumed equal efficacy and parallelism between target compounds and reference compound (benzo[a]pyrene).
Table S4. In vitro transactivation bioassay conditions for evaluating toxicities of chemical compounds.

[2] = Table S1, not marked as estimated; cited from earlier work

Structure (SMILES)	EC50 [1] [µM]	Log Kow [2]
Oc1cccc2c1ccc1c3ccccc3ccc21 [1-hydroxychrysene]	87	–
Cc1cccc2c1ccc1c3ccccc3ccc21 [1-methylchrysene]	1.9	–
Oc1ccc2c(ccc3c4ccccc4ccc23)c1 [2-hydroxychrysene]	59	–
Cc1ccc2c(ccc3c4ccccc4ccc23)c1 [2-methylchrysene]	0.66	–
Oc1ccc2ccc3c4ccccc4ccc3c2c1 [3-hydroxychrysene]	140	–
Cc1ccc2ccc3c4ccccc4ccc3c2c1 [3-methylchrysene]	1.1	–
c1ccc2c(c1)ccc1c2ccc2c3ccccc3ccc21 [Benzo[a]chrysene]	20	7.11
c1ccc2cc3c(ccc4c5ccccc5ccc34)cc2c1 [Benzo[b]chrysene]	2.8	7.11
c1ccc2c(c1)ccc1c2ccc2ccc3ccccc3c21 [Benzo[c]chrysene]	1.3	7.11
c1ccc2c(c1)ccc1c3ccccc3ccc21 [Chrysene]	7.2	5.81
c1ccc2c(c1)cc1ccc3c4ccccc4cc4ccc2c1c43 [Dibenzo[b,def]chrysene]	14	7.28
c1ccc2c(c1)cc1ccc3cccc4c5ccccc5c2c1c34 [Dibenzo[def,p]chrysene]	76	7.71
